Measured values from ChEMBL document CHEMBL3627599, “The antioxidant properties of salicylate derivatives: A possible new mechanism of anti-inflammatory activity” (Bioorg Med Chem Lett, 2015).

Experiments:
[1] = Antioxidant activity assessed as DPPH free radical scavenging activity at 0.01 to 1 mM after 30 mins; assay type: physicochemical; details: 0.5 h, 1000 µM
[2] = Antioxidant activity assessed as DPPH free radical scavenging activity at 1 mM after 30 mins; assay type: physicochemical; details: 0.5 h, 1000 µM

Structure (SMILES)	Activity [1]	Activity [2]
O=C(O)c1ccccc1O [SALICYLIC ACID]	Active	–
O=C(O)c1cc(Cl)ccc1O [5-CHLOROSALICYLIC ACID]	Active	–
NC(=O)c1cc(O)ccc1O	Active	–
CC(=O)Nc1ccc(O)c(C(N)=O)c1	–	Active
COc1ccc(O)c(C(=O)O)c1	Active	–
COC(=O)c1cc(O)ccc1O [METHYL 2,5-DIHYDROXYBENZOATE]	Active	–
Cc1ccc(O)c(C(=O)O)c1	Active	–

Next, values leading:

Activity [1]	Activity [2]	Structure (SMILES)
Active	–	O=C(O)c1cc([N+](=O)[O-])ccc1O
Active	–	O=C(O)c1cc(O)ccc1O [GENTISIC ACID]
Active	–	Nc1ccc(O)c(C(=O)O)c1 [MESALAMINE]
